Measurements published in US9309410B2, “Colorant compounds” (Xerox Corporation, priority 2013, dated 2016).

Experiment: Solubility testing in polyethylene wax (POLYWAX 655)
Assay type: physicochemical
Conditions: 1 g Solvent Black 3 or 2 g distearyl derivative in 50 g POLYWAX 655; 120° C. oil bath, stirred 3 h, then 1 h without stirring
Source text: Solvent Black 3 (NEPTUN BLACK X60, BASF), of the formula
[drawing 36] molecular weight 456, and the distearyl derivative, a compound as disclosed herein, of the formula
[drawing 37] molecular weight 892, were compared for solubility in polyethylene wax, a predominant component in phase change inks. 1 g of the Solvent Black 3 and 2 g of the distearyl derivative (because its molecular weight was about twice that of Solvent Black 3) were each dissolved in 50 g portions of POLYWAX 655 (Baker Petrolite) in 100 mL beakers equipped with magnetic stir bars. The solutions were placed in 120° C. oil baths and allowed to stir for 3 h, followed by cessation of stirring for 1 h, after which the solutions were poured into aluminum tins.

| SMILES | solubility in polyethylene wax (solids on the bottom of the beaker) |
| --- | --- |
| CC1(C)Nc2cccc3c(/N=N/c4ccc(/N=N/c5ccccc5)c5ccccc45)ccc(c23)N1 [Solvent Black 3] | a substantial amount of the Solvent Black 3 appeared on the bottom of its beaker |
| CCCCCCCCCCCCCCCCCC1(CCCCCCCCCCCCCCCCC)Nc2cccc3c(/N=N/c4ccc(/N=N/c5ccccc5)c5ccccc45)ccc(c23)N1 [distearyl derivative] | almost no solids appeared on the bottom of the beaker |
